In paper PMC7187334 (Clinical Pharmacology in Drug Development, 2019):
pIC50: −log10 of the molar value. Entries after “also recorded” stand apart in the source; their conditions may differ. Marks after values point to notes of the source that are not given here.

How the values were obtained:
[1] = Phase 1 crossover study: AZD5718 plasma pharmacokinetics; format: in vivo, human; conditions: for AUC(0-inf) / AUC(0-t) / half-life / Tmax / Cmax: human, plasma, oral; for AUC(0-inf): AZD5718 AUC0-inf; for AUC(0-t): AZD5718 AUC0-last; for half-life: AZD5718 t1/2 lambda z; for Tmax: AZD5718 tmax, median (range); for Cmax: AZD5718 Cmax
Experimental: The primary objective was to evaluate the pharmacokinetics of oral rosuvastatin when administered alone and in combination with oral AZD5718. […] Each participant received 5 single-dose oral study treatments (A-E), with a minimum washout period of 7 days between each treatment period. Participants were randomly assigned to treatments in the order A, B, C, D, E or B, A, C, D, E. Treatments were: […] […] Participants fasted for at least 10 hours before treatment and for at least 4 hours after treatment. Participants receiving treatment E consumed a high-fat breakfast 30 minutes before treatment. Water was permitted as desired except within 1 hour of administration. […] Doses were taken with 240 mL of water. […] At a minimum, each analytical run included a calibration curve, a matrix blank, a control zero sample (matrix blank containing internal standard), a reagent blank, and duplicate quality control samples at 3 concentrations within the calibration range. […] Both assessments were well within the acceptance criteria. […] The pharmacokinetic analysis set for rosuvastatin included all participants who received both rosuvastatin treatments. […] Statistical analyses were performed by […] using SAS version 9.4. Rosuvastatin pharmacokinetics were analyzed using a mixed-effects model, with log-transformed AUC, AUC0-last, and Cmax as the response variables; treatment sequence, period, and treatment as fixed effects; and participant nested within treatment sequence as a random effect. […] LS mean differences and 90%CIs for the effect of formulation or food for log-transformed variables were back transformed to geometric mean ratios and presented as percentages with 90% CIs.

CYP1A2 = conditions: in vitro; read-out: IC50, CYP1A2 inhibition; cited from earlier work
[2] = healthy volunteers, cited from earlier work
CYP3A4 and CYP3A5 = conditions: in vitro; UGT 1A1, 1A3, 1A4 glucuronidation also contributes; cited from earlier work
[3] = test system: leukotriene B4 production; conditions: healthy volunteers, first-in-human study; 95% CI 4.8-5.8 nM; read-out: IC50, inhibition of leukotriene B4 production, whole-blood ex vivo stimulation assay; cited from earlier work
CYP2C19 = conditions: in vitro; read-out: IC50, CYP2C19 inhibition; cited from earlier work
healthy volunteers = experiment: Phase 1 crossover study: safety and tolerability (adverse events); format: in vivo, human
Experimental: Each participant received 5 single‐dose oral study treatments (A‐E), with a minimum washout period of 7 days between each treatment period.
The safety set included all participants who received treatment in the study and for whom any postdose safety data were available. Safety was assessed throughout the study by monitoring adverse events, vital signs (systolic and diastolic blood pressure, pulse rate, and body temperature), and electrocardiographic parameters and by conducting physical examinations and laboratory assessments (hematology, blood chemistry, and urinalysis).

CYP3A4 = conditions: in vitro; read-out: IC50, CYP3A4 inhibition; cited from earlier work
CYP2C9 = conditions: in vitro; read-out: IC50, CYP2C9 inhibition; cited from earlier work
CYP2C8 = conditions: in vitro; read-out: IC50, CYP2C8 inhibition; cited from earlier work
[4] = test system: leukotriene E4 levels in urine; conditions: healthy volunteers, first-in-human study; 95% CI 0.7-1.0 nM; read-out: IC50, reduction of endogenous leukotriene E4 levels in urine; cited from earlier work
[5] = 200 mg suspension, fasted, n = 10
[6] = 200 mg tablet plus rosuvastatin 10 mg, fasted, n = 12
[7] = 200 mg, arithmetic mean (SD), 200 mg suspension, fasted, n = 10
[8] = 200 mg, arithmetic mean (SD), 200 mg tablet, fasted, n = 10
[9] = 200 mg, arithmetic mean (SD), 200 mg tablet, fed, n = 12
[10] = 200 mg, geometric mean (%CV), 200 mg suspension, fasted, n = 10
[11] = 200 mg, geometric mean (%CV), 200 mg tablet, fasted, n = 10
[12] = 200 mg, geometric mean (%CV), 200 mg tablet, fed, n = 12
[13] = arithmetic mean (SD), 200 mg tablet plus rosuvastatin 10 mg, fasted, n = 12
[14] = geometric mean (%CV), 200 mg tablet plus rosuvastatin 10 mg, fasted, n = 12
[15] = male, 200 mg, geometric mean (%CV), 200 mg suspension, fasted, n = 12
[16] = male, 200 mg, geometric mean (%CV), 200 mg tablet, fasted, n = 12
[17] = male, 200 mg, geometric mean (%CV), 200 mg tablet, fed, n = 12
[18] = male, geometric mean (%CV), 200 mg tablet plus rosuvastatin 10 mg, fasted, n = 12
[19] = tablets after high-fat breakfast relative to fasting

Cc1cc(-c2ccc(C(=O)[C@@H]3CCCC[C@H]3C(=O)Nc3cnn4c3C(=O)NCC4)cc2)n[nH]1 [AZD5718]
AZD5718 CL/F, arithmetic mean (SD) [1, 5]: 93.55 (20.40) ^a L/h
AZD5718 CL/F, geometric mean (%CV) [1, 5]: 91.5 (22.2) ^a L/h
AZD5718 CL/F, arithmetic mean (SD) [1, 6]: 127.6 (28.12) L/h
AZD5718 CL/F, geometric mean (%CV) [1, 6]: 124.6 (22.6) L/h
AZD5718 Cmax, ratio of geometric LS means ([1]; 200 mg tablet vs oral suspension, fasted, 90% CI 36%-57%): 45%
AZD5718 AUC0-inf (relative bioavailability), geometric LS mean ratio ([1]; 200 mg tablet vs oral suspension, fasted, 90% CI 64%-80%): 72%
AZD5718 CL/F, arithmetic mean (SD) ([1]; 200 mg tablet, fasted, n = 10): 128.1 (25.63) ^a L/h
AZD5718 CL/F, geometric mean (%CV) ([1]; 200 mg tablet, fasted, n = 10): 126.0 (20.1) ^a L/h
AZD5718 AUC0-inf (relative bioavailability), geometric LS mean ratio ([1]; 200 mg tablet, fed (high-fat breakfast) vs fasted, 90% CI 87%-106%): 96%
AZD5718 Cmax, geometric LS mean ratio ([1]; 200 mg tablet, fed vs fasted, 90% CI 63%-95%): 77%
AZD5718 CL/F, arithmetic mean (SD) ([1]; 200 mg tablet, fed, n = 12): 136.9 (25.53) L/h
AZD5718 CL/F, geometric mean (%CV) ([1]; 200 mg tablet, fed, n = 12): 134.4 (20.4) L/h
Effect of rosuvastatin coadministration on AZD5718 pharmacokinetics ([1]; AZD5718 200 mg tablet plus rosuvastatin 10 mg vs tablet alone): unaffected; also recorded: not affected
Between-participant variability (CV) of AUC0-inf and AUC0-last ([1]; AZD5718 tablets): < 25%
AUC(0-inf) [1, 7]: 5 µM·h
AUC(0-inf) [1, 8]: 3.62 µM·h
AUC(0-inf) [1, 9]: 3.4 µM·h
AUC(0-inf) [1, 10]: 4.89 µM·h
AUC(0-inf) [1, 11]: 3.56 µM·h
AUC(0-inf) [1, 12]: 3.33 µM·h
AUC(0-t) ([1]; 200 mg, arithmetic mean (SD), 200 mg suspension, fasted, n = 12): 4.75 µM·h
AUC(0-t) ([1]; 200 mg, arithmetic mean (SD), 200 mg tablet, fasted, n = 12): 3.49 µM·h
AUC(0-t) [1, 9]: 3.27 µM·h
half-life [1, 7]: 13.6 h
half-life [1, 8]: 14 h
half-life [1, 9]: 13.7 h
half-life [1, 10]: 13.2 h
half-life [1, 11]: 13.2 h
half-life [1, 12]: 13.5 h
Tmax ([1]; 200 mg, 200 mg suspension, fasted, n = 12): 1 h
Tmax ([1]; 200 mg, 200 mg tablet, fed, n = 12): 4 h
AUC(0-inf) [1, 13]: 3.67 µM·h
AUC(0-inf) [1, 14]: 3.59 µM·h
AUC(0-t) [1, 13]: 3.55 µM·h
half-life [1, 13]: 15 h
half-life [1, 14]: 13.9 h
Tmax [1, 6]: 2.01 h
Decrease in AZD5718 Cmax ([1]; immediate-release tablets relative to oral suspension): about 55%
AUC(0-t) [1, 15]: 4.65 µM·h
AUC(0-t) [1, 16]: 3.43 µM·h
AUC(0-t) [1, 17]: 3.21 µM·h
Cmax ([1]; male, 200 mg, arithmetic mean (SD), 200 mg suspension, fasted, n = 12): 1250 nM
Cmax ([1]; male, 200 mg, arithmetic mean (SD), 200 mg tablet, fasted, n = 12): 565 nM
Cmax ([1]; male, 200 mg, arithmetic mean (SD), 200 mg tablet, fed, n = 12): 427 nM
Cmax [1, 15]: 1170 nM
Cmax [1, 16]: 530 nM
Cmax [1, 17]: 409 nM
AUC(0-t) [1, 18]: 3.46 µM·h
Cmax ([1]; male, arithmetic mean (SD), 200 mg tablet plus rosuvastatin 10 mg, fasted, n = 12): 567 nM
Cmax [1, 18]: 545 nM
Decrease in AZD5718 Cmax [1, 19]: about 23%
Delay in AZD5718 tmax [1, 19]: about 1 hour
pIC50 (CYP1A2): < 4.70
time to steady-state levels ([2]; oral suspension, multiple doses): about 3 days
tolerability ([2]; single oral doses 25-1200 mg and multiple doses 60-600 mg): well tolerated, with no identified safety concerns
enzymes involved in metabolism (CYP3A4 and CYP3A5): cytochrome P450 (CYP) 3A4 and CYP3A5 are involved in the metabolism
pIC50 [3]: 8.28
pIC50 (CYP2C19): < 4.70
Deaths, serious adverse events, adverse events leading to discontinuation (healthy volunteers; all 5 treatment periods, 12 healthy men): No deaths, serious adverse events, or adverse events leading to discontinuation occurred
Participants with any AE (healthy volunteers; human, in vivo): 6 (50.0) n (%)
Participants with dry skin (healthy volunteers; human, in vivo): 1 (8.3) n (%)
Participants with headache (healthy volunteers; human, in vivo): 2 (16.7) n (%)
Participants with hot flush (healthy volunteers; human, in vivo): 1 (8.3) n (%)
Participants with influenza-like illness (healthy volunteers; human, in vivo): 1 (8.3) n (%)
Participants with musculoskeletal pain (healthy volunteers; human, in vivo): 1 (8.3) n (%)
Participants with nasal congestion (healthy volunteers; human, in vivo): 1 (8.3) n (%)
Participants with nasopharyngitis (healthy volunteers; human, in vivo): 1 (8.3) n (%)
Participants with nausea (healthy volunteers; human, in vivo): 1 (8.3) n (%)
Participants with oropharyngeal pain (healthy volunteers; human, in vivo): 1 (8.3) n (%)
Participants with poor-quality sleep (healthy volunteers; human, in vivo): 1 (8.3) n (%)
pIC50 (CYP3A4): < 4.70
pIC50 (CYP2C9): < 4.70
pIC50 (CYP2C8): < 4.70
pIC50 [4]: 9.10
